Assay results taken from US20210007356A1, “IMIDE DERIVATIVE AND FUNGICIDE CONTAINING SAID DERIVATIVE AS ACTIVE INGREDIENT” (HOKKO CHEMICAL INDUSTRY CO., LTD., priority 2018, published 2021).
Read-outs that look alike come from different tables or passages of the source.

Tests used:
[1] = tested on: barley powdery mildew fungus (Erysiphe graminis); assay: Test Example 2: control effect against barley powdery mildew by foliage application; format: in vivo; conditions: wettable powder diluted to 100 ppm, 10 mL per pot foliage spray on barley; inoculated day after; 7 days after inoculation
[2] = tested on: rice blast fungus (Pyricularia grisea); format: in vivo; conditions: flowable diluted to 100 ppm, 10 mL per pot foliage spray on paddy rice; inoculated day after; 7 days after inoculation
[3] = tested on: rice blast fungus (Pyricularia grisea); format: in vivo; conditions: flowable 5,000 ppm, 50 mL irrigation of nursery box, paddy rice; inoculated after 3 weeks; 7 days after inoculation
[4] = tested on: rice blast fungus (Pyricularia grisea); format: in vivo; conditions: 5 g of granule on nursery box, paddy rice; inoculated after 3 weeks; 7 days after inoculation
[5] = tested on: rice blast fungus (Pyricularia grisea); format: in vivo; conditions: flowable 1,000 ppm, 1 mL dripped in paddy water, inoculated after 1 week, 7 days after inoculation
[6] = tested on: rice sheath blight fungus (Thanatephorus cucumeris); assay: Test Example 8: control effect against rice sheath blight by box treatment (granule); conditions: 5 g of granule on nursery box, paddy rice; inoculated after 3 weeks; 7 days after inoculation
[7] = tested on: rice sheath blight fungus (Thanatephorus cucumeris); assay: Test Example 6: control effect against rice sheath blight by box treatment (flowable formulation); conditions: flowable 5,000 ppm, 50 mL irrigation of nursery box, paddy rice; inoculated after 3 weeks; 7 days after inoculation
[8] = tested on: rice sheath blight fungus (Thanatephorus cucumeris); assay: Test Example 10: control effect against rice sheath blight by water surface application (flowable formulation); conditions: flowable 1,000 ppm, 1 mL dripped in paddy water, inoculated after 1 week, 7 days after inoculation

Row | Compound | evaluation value of control effect (from control value, lesion area percentage) [1] | evaluation value of control effect (from control value, number of lesions) [2] | evaluation value of control effect (from control value, number of lesions) [3] | evaluation value of control effect (from control value, number of lesions) [4] | evaluation value of control effect (from control value, number of lesions) [5] | evaluation value of control effect (from control value, lesion height) [6] | evaluation value of control effect (from control value, lesion height) [7] | evaluation value of control effect (from control value, lesion height) [8]
1 | Cn1cc(C(=O)N(C(=O)c2onc(Cl)c2Cl)c2ccccc2-c2cc(F)c(F)c(F)c2)c(C(F)F)n1 [1-374] | 4 | 4 | 5 | 5 | 5 | 5 | 5 | 5
2 | Cc1nn(C)c(F)c1C(=O)N(C(=O)c1cc(Cl)no1)c1ccccc1C(C)CC(C)C (stereo not shown) [1-376] | 4 | 4 | 5 | 5 | 5 | 5 | 5 | 5
3 | CC(C)CC(C)c1sccc1N(C(=O)c1cn(C)nc1C(F)F)C(=O)c1snc(Cl)c1Cl (stereo not shown) [5-5] | 5 | 4 | 5 | 5 | 5 | 5 | 5 | 5
4 | Cc1nnsc1C(=O)N(C(=O)c1cn(C)nc1C(F)F)c1ccsc1C(C)CC(C)C (stereo not shown) [5-23] | 5 | 4 | 5 | 5 | 5 | 5 | 5 | 5
5 | Cc1cc(C(=O)N(C(=O)c2scnc2C(F)F)c2ccccc2C(C)CC(C)C)sn1 (stereo not shown) [7-134] | 4 | 4 | 5 | 5 | 5 | 5 | 5 | 5
6 | Cc1nsc(C(=O)N(C(=O)c2scnc2C(F)F)c2ccccc2C(C)CC(C)C)c1Cl (stereo not shown) [7-141] | 4 | 4 | 5 | 5 | 5 | 5 | 5 | 5
7 | CCc1nc(C(F)F)c(C(=O)N(C(=O)c2sc(C)nc2C(F)F)c2ccccc2C(C)CC(C)C)s1 (stereo not shown) [7-216] | 4 | 4 | 5 | 5 | 5 | 5 | 5 | 5
8 | Cc1nc(C(F)F)c(C(=O)N(C(=O)c2sc(C)nc2C(F)(F)F)c2ccccc2C(C)CC(C)C)s1 (stereo not shown) [7-226] | 4 | 4 | 5 | 5 | 5 | 5 | 5 | 5
9 | Cc1nc(C(F)F)c(C(=O)N(C(=O)c2sc(C)nc2C(F)F)c2ccccc2C(C)CC(C)C)s1 (stereo not shown) [7-238, 4-Difluoromethyl-N-{4-(difluoromethyl)-2-methyl-thiazole-5-carbonyl}-N-{2-(1,3-dimethylbutyl)phenyl}-2-methyl-thiazole-5-carboxamide] | 5 | 4 | 5 | 5 | 5 | 5 | 5 | 5
10 | Cc1nc(C(F)F)c(C(=O)N(C(=O)c2scnc2C(F)F)c2ccccc2C(C)CC(C)C)s1 (stereo not shown) [7-262] | 4 | 4 | 5 | 5 | 5 | 5 | 5 | 5
11 | CC(C)CC(C)c1ccccc1N(C(=O)c1cccnc1Br)C(=O)c1snc(Cl)c1Cl (stereo not shown) [13-54] | 4 | 4 | 5 | 5 | 5 | 5 | 5 | 5
12 | CC(C)CC(C)c1ccccc1N(C(=O)c1cc(F)nc(F)c1)C(=O)c1cccnc1C(F)F (stereo not shown) [13-58] | 5 | 4 | 5 | 5 | 5 | 5 | 5 | 5
13 | Cc1nnsc1C(=O)N(C(=O)c1cn(C)nc1C(F)F)c1cccc2c1C(C)OC2(C)C (stereo not shown) [25-56] | 4 | 4 | 5 | 5 | 5 | 5 | 5 | 5
14 | CC1OC(C)(C)c2cccc(N(C(=O)c3cn(C)nc3C(F)F)C(=O)c3snnc3C(F)F)c21 (stereo not shown) [25-68] | 4 | 4 | 5 | 5 | 5 | 5 | 5 | 5
